Data on 1 compound can be found in patent US7199153B2, “Pharmaceutical composition comprising paracetamol and niflumic acid” (SmithKline Beechman, p.l.c., priority 2000, dated 2007).

The subject of this experiment is P-phenyl-quinone induced abdominal constriction in DBA/2 mice. Put plainly: P-phenyl-quinone induced mouse abdominal constriction (MAC) assay. It is filed as in vivo. As to conditions: paracetamol alone at 50 mg/kg and 150 mg/kg, po. As for the experimental part: The method is based on that described by Siegmund, Cadmus and Lu in “A Method for Evaluating both Non-Narcotic and Narcotic Analgesics” Proc. Soc. Exp. Biol. Med., 95: 729–731 (1957)).
DBA/2 mice were housed 20 per cage in a temperature and humidity controlled environment on a 12:12 hour light-dark cycle for five days with food and water ad libitum before testing. […] Ten animals were randomly allocated to each drug group and experimental designs were used that allowed complete randomisation of the testing of drug groups. Drugs were suspended in 1% methylcellulose and administered 10 ml/kg po, 60 mins pre-test. Abdominal constriction was induced by i.p. injection of 10 ml/kg P-phenyl-quinone (0.025% in 5% ethanol/water) and the total number of constrictions in a twenty minute period were measured. A constriction is defined as a flattening of the abdomen with extension of the hind limbs. Testing was blind with one experimenter observing five animals. All experiments were performed in accordance with the Animals (Scientific Procedures) Act 1986 and subject to local ethical committee approval.
For each drug group, the mean % inhibition of constrictions was calculated ((1-(test/control))*100) and appropriate statistics were performed on log-transformed data to test significant differences from vehicle and, in the case of groups receiving drug combinations, each drug alone.

As for `CC(=O)Nc1ccc(O)cc1` [Paracetamol, N-acetyl-p-aminophenol], the “% inhibition of constrictions, drug alone” value was “small but significant effect”.
